Reference: patent publication US20250066371A1, “FLUOROALKOXYALKYLENE-DIHYDROIMIDAZO[5,1-D]TETRAZINONE COMPOUNDS AND RELATED COMPOUNDS AND THEIR USE IN TREATING MEDICAL CONDITIONS” (priority 2023, published 2025)
Structures can show the parent of a compound that is named as a salt. Where two headings read alike, the source gives them in different places.

How the values were obtained:
Assay type in all cases: cell-based
[1] = system: LN229 gliobastoma cells MGMT+/MMR+; experiment: Anti-cancer assay, isogenic LN229 cells, nuclei count (Example 43); settings: Homo sapiens, read-out: MGMT+ MMR+ Activity
Description: (§1) Cytotoxicity of the compounds may be measured in short-term cell viability assays against four isogenic LN229 glioblastoma cell lines engineered to be proficient or deficient in MGMT and/or MMR activity by using short hairpin RNAs (shRNAs) targeting MSH2. This approach allows for determination of the relationship between MGMT status, MMR status, and compound activity. LN229 cells are maintained in Dulbecco's Modified Eagle Medium (DMEM) supplemented with 10% fetal bovine serum, 1% Penicillin/Streptomycin, and 0.1% Fungin. DAY 0: Cells are plated into sterile 96-well plates (Corning Costar 96-well) at a concentration of 500 cells/well using a Multichannel pipettor. Then, assay plates are incubated overnight in a 37° C. 5% CO2 incubator. DAY 1: Compounds are prepared as 50 mM stocks in dimethyl sulfoxide (DMSO) and stored protected from light at room temperature (RT) until use. Prior to compound addition, a two-fold serial dilution of compound stock solutions is performed in DMSO from 30 mM to 0.117 mM in a 96-well Master plate. Vehicle control wells contain DMSO. 97 μL of media is added to each well of a new 96-well plate (Daughter plate) and 3 μL of drug solution from Master plate is added to corresponding wells in the Daughter plate resulting in a 3× plate. Three replicate dilution curves of each compound are run on each assay plate. The final concentration of compounds ranges from 300 μM to 1.171 μM (9-point, 2-fold dilution dose response curve), and the final DMSO concentration is 1%.
(§2) Assay plates are incubated for 120 hours at 37° C. in a humidified 5% CO2 incubator. DAY 5: Following incubation, cells are fixed with 4% paraformaldehyde and stained with Hoechst dye for nuclei visualization. Fixation, staining and washing is performed by using a Thermo Scientific Multidrop Combi. Images are acquired on a BioTek Cytation 5 Cell Imaging Multimode Reader and quantified using Cell Profiler image analysis software. Raw cell count data for test compounds are normalized to percent viability relative to the DMSO vehicle control.
(§3) Isogenic LN229 gliobastoma cells were maintained in Dulbecco's Modified Eagle Medium (DMEM) supplemented with 10% fetal bovine serum, 1% Penicillin/Streptomycin, and 0.1% Fungin. DAY 0: Cells were plated into sterile 96-well plates (Corning Costar 96-well) at a concentration of 500 cells/well using a Multichannel pipettor. Then, assay plates were incubated overnight in a 37° C. 5% CO2 incubator. DAY 1: Compounds were prepared as 50 mM stocks in dimethyl sulfoxide (DMSO) and stored protected from light at room temperature (RT) until use. Prior to compound addition, a two-fold serial dilution of compound stock solutions was performed in DMSO from 30 mM to 0.117 mM in a 96-well Master plate. Vehicle control wells contained DMSO. 97 μL of media was added to each well of a new 96-well plate (Daughter plate) and 3 μL of drug solution from Master plate was added to corresponding wells in the Daughter plate resulting in a 3× plate. Three replicate dilution curves of each compound were run on each assay plate. The final concentration of compounds ranged from 300 μM to 1.171 μM (9-point, 2-fold dilution dose response curve), and the final DMSO concentration was 1%.
as §2, with “plates were” for “plates are”, “cells were” for “cells are”, “washing was” for “washing is”, “Images were” for “Images are”, “compounds were” for “compounds are”

[2] = system: LN229 gliobastoma cells MGMT+/MMR−; experiment: as above; settings: Homo sapiens, read-out: MGMT+ MMR− Activity
Description: as §1, §2, §3
as §2, with “plates were” for “plates are”, “cells were” for “cells are”, “washing was” for “washing is”, “Images were” for “Images are”, “compounds were” for “compounds are”

[3] = system: LN229 gliobastoma cells MGMT−/MMR−; experiment: Anti-cancer assay, isogenic LN229 cells, nuclei count (Examples 43, 46); settings: Homo sapiens, read-out: MGMT− MMR− Activity
Description: as §1, §2, §3
as §2, with “plates were” for “plates are”, “cells were” for “cells are”, “washing was” for “washing is”, “Images were” for “Images are”, “compounds were” for “compounds are”, “control. […]” for “control.”

[4] = system: LN229 gliobastoma cells MGMT−/MMR+; experiment: as above; settings: Homo sapiens, read-out: MGMT− MMR+ Activity
Description: as §1, §2, §3
as §2, with “plates were” for “plates are”, “cells were” for “cells are”, “washing was” for “washing is”, “Images were” for “Images are”, “compounds were” for “compounds are”, “control. […]” for “control.”

[5] = LN-229, LN229 MGMT+/MMR+, 120 hours
[6] = LN-229, LN229 MGMT+/MMR−, 120 hours
[7] = LN-229, LN229 MGMT−/MMR−, 120 hours
[8] = LN-229, LN229 MGMT−/MMR+, 120 hours

Row | Compound | IC50 ([1]; LN-229, 120 h) [µM] | IC50 ([2]; LN-229, 120 h) [µM] | IC50 ([3]; LN-229, 120 h) [µM] | IC50 ([4]; LN-229, 120 h) [µM] | IC50 [1, 5] [µM] | IC50 [2, 6] [µM] | IC50 [3, 7] [µM] | IC50 [4, 8] [µM]
1 | CCNC(=O)c1ncn2c(=O)n(CCOC(F)(F)F)nnc12 [Compound I-3, N-Ethyl-4-oxo-3-(2-(trifluoromethoxy)ethyl)-3,4-dihydroimidazo[5,1-d][1,2,3,5]tetrazine-8-carboxamide] | > 100 | > 100 | 50 to 100 | 50 to 100 |  |  |  | 
2 | CN(C)C(=O)c1ncn2c(=O)n(CCOC(F)(F)F)nnc12 [Compound I-4, N,N-Dimethyl-4-oxo-3-(2-(trifluoromethoxy)ethyl)-3,4-dihydroimidazo[5,1-d][1,2,3,5]tetrazine-8-carboxamide] |  |  |  |  | 50 to 100 | 20 to 50 | 20 to 50 | 20 to 50
3 | O=C(NC1CCCC1)c1ncn2c(=O)n(CCOC(F)(F)F)nnc12 [Compound I-5, N-Cyclopentyl-4-oxo-3-(2-(trifluoromethoxy)ethyl)-3,4-dihydroimidazo[5,1-d][1,2,3,5]tetrazine-8-carboxamide] |  |  |  |  | > 100 | > 100 | 20 to 50 | 50 to 100
4 | O=C(NC1CC1)c1ncn2c(=O)n(CCOC(F)(F)F)nnc12 [Compound I-6, N-Cyclopropyl-4-oxo-3-(2-(trifluoromethoxy)ethyl)-3,4-dihydroimidazo[5,1-d][1,2,3,5]tetrazine-8-carboxamide] |  |  |  |  | 20 to 50 | < 20 | 20 to 50 | < 20
5 | O=C(c1ncn2c(=O)n(CCOC(F)(F)F)nnc12)N1CCCC1 [Compound I-7, 8-(Pyrrolidine-1-carbonyl)-3-(2-(trifluoromethoxy)ethyl)imidazo[5,1-d][1,2,3,5]tetrazin-4(3H)-one] |  |  |  |  | 20 to 50 | 50 to 100 | 20 to 50 | 20 to 50
6 | O=C(Nc1ccccn1)c1ncn2c(=O)n(CCOC(F)(F)F)nnc12 [Compound I-8, 4-Oxo-N-(2-pyridyl)-3-[2-(trifluoromethoxy)ethyl]imidazo[5,1-d][1,2,3,5]tetrazine-8-carboxamide] |  |  |  |  | > 100 | > 100 | 20 to 50 | 50 to 100
7 | O=C(Nc1ccccc1)c1ncn2c(=O)n(CCOC(F)(F)F)nnc12 [Compound I-9, 4-Oxo-N-phenyl-3-(2-(trifluoromethoxy)ethyl)-3,4-dihydroimidazo[5,1-d][1,2,3,5]tetrazine-8-carboxamide] | 50 to 100 | > 100 | < 20 | 20 to 50 |  |  |  | 
8 | CN1CCN(C(=O)c2ncn3c(=O)n(CCOC(F)(F)F)nnc23)CC1 [Compound I-10, 8-(4-Methylpiperazine-1-carbonyl)-3-(2-(trifluoromethoxy)ethyl)imidazo[5,1-d][1,2,3,5]tetrazin-4(3H)-one] |  |  |  |  | 50 to 100 | 50 to 100 | 20 to 50 | 20 to 50
9 | CN(C)CCN(C)C(=O)c1ncn2c(=O)n(CCOC(F)(F)F)nnc12 [Compound I-11, N-(2-(Dimethylamino)ethyl)-N-methyl-4-oxo-3-(2-(trifluoromethoxy)ethyl)-3,4-dihydroimidazo[5,1-d][1,2,3,5]tetrazine-8-carboxamide] | 50 to 100 | 50 to 100 | < 20 | < 20 |  |  |  | 
10 | NCCNC(=O)c1ncn2c(=O)n(CCOC(F)(F)F)nnc12 [Compound I-12, Hydrochloride Salt of N-(2-Aminoethyl)-4-oxo-3-(2-(trifluoromethoxy)ethyl)-3,4-dihydroimidazo[5,1-d][1,2,3,5]tetrazine-8-carboxamide] |  |  |  |  | > 100 | > 100 | 20 to 50 | 50 to 100
11 | NC(=O)c1ncn2c(=O)n(CCCOCC(F)(F)F)nnc12 [Compound I-22] |  |  |  |  | > 100 | > 100 | > 100 | > 100
12 | NC(=O)c1ncn2c(=O)n(COC(C(F)(F)F)C(F)(F)F)nnc12 [Compound I-23] |  |  |  |  | > 100 | > 100 | > 100 | > 100
13 | CNC(=O)c1ncn2c(=O)n(CCOC(F)(F)F)nnc12 [Compound I-26] |  |  |  |  | > 100 | > 100 | < 20 | 20 to 50
14 | [2H]C([2H])(OC(F)(F)F)C([2H])([2H])n1nnc2c(C(N)=O)ncn2c1=O [Compound I-29, 4-Oxo-3-(2-(trifluoromethoxy)ethyl-1,1,2,2-d4)-3,4-dihydroimidazo[5,1-d][1,2,3,5]tetrazine-8-carboxamide] |  |  |  |  | > 100 | > 100 | < 20 | 20 to 50
15 | CCOC(=O)c1ncn2c(=O)n(CCOC(F)(F)F)nnc12 [Compound I-30, Ethyl 4-Oxo-3-(2-(trifluoromethoxy)ethyl)-3,4-dihydroimidazo[5,1-d][1,2,3,5]tetrazine-8-carboxylate] | > 100 | > 100 | < 20 | > 100 |  |  |  | 
16 | NC(=S)c1ncn2c(=O)n(CCOC(F)(F)F)nnc12 [Compound I-31, 4-Oxo-3-(2-(trifluoromethoxy)ethyl)-3,4-dihydroimidazo[5,1-d][1,2,3,5]tetrazine-8-carbothioamide] |  |  |  |  | > 100 | > 100 | < 20 | 20 to 50
17 | N=C(N)c1ncn2c(=O)n(CCOC(F)(F)F)nnc12 [Compound I-34, 4-Oxo-3-(2-(trifluoromethoxy)ethyl)-3,4-dihydroimidazo[5,1-d][1,2,3,5]tetrazine-8-carboximidamide] |  |  |  |  | 50 to 100 | 50 to 100 | < 20 | < 20
18 | O=c1n(CCOC(F)(F)F)nnc2c(Cl)ncn12 [Compound I-39, 8-Chloro-3-(2-(trifluoromethoxy)ethyl)imidazo[5,1-d][1,2,3,5]tetrazin-4(3H)-one] |  |  |  |  | < 20 | 20 to 50 | < 20 | < 20
19 | NC(=O)c1ncn2c(=O)n(CCOC(F)F)nnc12 [Compound I-44] |  |  |  |  | > 100 | > 100 | > 100 | > 100
20 | O=c1n(CCOC(F)(F)F)nnc2c(-c3nc4ccccc4[nH]3)ncn12 [II-1, 8-(1H-Benzo[d]imidazol-2-yl)-3-(2-(trifluoromethoxy)ethyl)imidazo[5,1-d][1,2,3,5]tetrazin-4(3H)-one] |  |  |  |  | < 20 | 50 to 100 | > 100 | < 20
21 | O=c1n(CCOC(F)(F)F)nnc2c(-c3ncc(-c4ccccc4)o3)ncn12 [II-2, 8-(5-Phenyloxazol-2-yl)-3-(2-(trifluoromethoxy)ethyl)imidazo[5,1-d][1,2,3,5]tetrazin-4(3H)-one] |  |  |  |  | < 20 | 20 to 50 | 20 to 50 | 50 to 100
